Experimental data as given in patent US20250099420A1, “SMALL MOLECULE MODULATORS OF GPR139 COMPLEX” (University of Florida Research Foundation, Incorporated, priority 2022, published 2025).
Where two headings read alike, the source gives them in different places.

Tests used:
GPR139 = biological target: T1, GPR139 (Homo sapiens, UniProt Q6DWJ6); experiment: GPR139 Agonist titration / agonist counterscreen assay (calcium detection, HEK-GPR139 cells); type: cell-based; parameters: expressed in transfected cells; host or cells: HEK Aequorin cells, Maxcyte transient transfection; conditions: GPR139 Agonist Activity; for EC50: read-out: EC50; for Averaged Max % Response (±St. Dev.): activity relative to known control
T1 sequence (Q6DWJ6 1-353): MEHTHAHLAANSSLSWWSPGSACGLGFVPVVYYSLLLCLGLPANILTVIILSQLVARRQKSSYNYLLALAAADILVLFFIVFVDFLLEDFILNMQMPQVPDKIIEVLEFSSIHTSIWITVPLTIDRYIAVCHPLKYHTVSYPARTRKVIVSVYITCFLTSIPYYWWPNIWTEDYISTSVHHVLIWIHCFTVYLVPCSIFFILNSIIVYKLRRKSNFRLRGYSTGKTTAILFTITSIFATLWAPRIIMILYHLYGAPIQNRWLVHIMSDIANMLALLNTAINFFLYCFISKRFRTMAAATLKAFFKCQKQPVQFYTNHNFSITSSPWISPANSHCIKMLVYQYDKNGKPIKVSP
Method: GPR activity was assessed using a calcium detection assay. […] Negative control samples were treated with DMSO. […] Intracellular calcium was measured using Calcium 5.

parental HEK cells = experiment: HEK parental Agonist Counterscreen Assay (non-transfected cells); type: cell-based; conditions: for Averaged Max % Response (±St. Dev.): activity relative to known control
From the text: The high control for the agonist counterscreen was Forskolin not acetylcholine.

[1] = Homo sapiens, HEK293, HEK Agonist Activity section of Table 4 (parental HEK counterscreen)
[2] = values printed in E-notation without unit
[3] = HEK Agonist Activity section of Table 4 (parental HEK counterscreen)
[4] = Homo sapiens, HEK293, HEK Agonist Activity, parental non-transfected HEK cells

SMILES	Efficiency Ligand (GPR139)	Hill Slope (GPR139)	Lipophilic Efficiency (logD) (GPR139)	Lipophilic Efficiency (logP) (GPR139)	EC50 (GPR139; HEK-GPR139 cells) [nM]	Averaged Max % Response (±St. Dev.) (GPR139) [%]	Lipophilic Efficiency (logD) (parental HEK cells; HEK Agonist Activity section)	Lipophilic Efficiency (logP) (parental HEK cells; HEK Agonist Activity section)	Averaged Max % Response (±St. Dev.) (parental HEK cells; HEK Agonist Activity section) [%]	EC50 (parental HEK cells; [1]) [nM]	Lipophilic Efficiency (logD) (GPR139; based on logD)	Lipophilic Efficiency (logP) (GPR139; based on logP)	Hill Slope (GPR139; fitted dose-response curve)	Efficiency Ligand (GPR139; ligand efficiency)	EC50 (GPR139; [2]) [nM]	EC50 (parental HEK cells; [3]) [nM]	Lipophilic Efficiency (logD) (parental HEK cells; HEK Agonist Activity)	Lipophilic Efficiency (logP) (parental HEK cells; HEK Agonist Activity)	Averaged Max % Response (±St. Dev.) (parental HEK cells; HEK Agonist Activity) [%]	EC50 (parental HEK cells; [4]) [nM]
COc1cc(C(=O)NNC(=O)CSc2ccc(C)cc2)cc(OC)c1C [SR-01000070170]	0.34	0.96	3.40	3.40	462	98.34 ± 1.36	1.89	1.89	6.82 ± 9.60	> 15000										
Cc1ccccc1SCC(=O)NNC(=O)C1CCCCC1 [SR-01000070173]	0.42	0.62	3.30	3.30	507	99.23 ± 7.18	1.83	1.83	7.45 ± 6.67	> 14700										
Cc1ccc2c(c1)CCCN2CC(=O)N(C)c1c(N)n(Cc2ccccc2)c(=O)[nH]c1=O [SR-01000070509]						96.94 ± 14.18	2.32	2.31	15.75 ± 7.96		4.29	4.29	0.89	0.30	153	> 14300				
Cc1cc(C(=O)CCC(=O)NNC(=O)CSc2nc3ccccc3s2)c(C)s1 [SR-01000070591]						126.06 ± 10.32					4.02	4.02	0.31	0.39	13.6		1.00	1.00	−5.74 ± 0.47	> 14300
O=C(Cn1nnc(-c2ccccc2)n1)NNC(=O)Cn1c(C(F)(F)F)nc2ccccc21 [SR-01000070891]						105.87 ± 4.30					4.97	4.93	0.88	0.35	11.9		1.86	1.83	8.31 ± 6.92	> 15200
O=C(COc1ccccc1Cl)NNC(=O)CSc1ccc2ccccc2c1 [SR-01000071098]						108.04 ± 6.43					4.08	4.08	0.77	0.39	27.4		1.38	1.37	24.54 ± 7.58	> 14100
Cc1cccc(Cc2cnc(NC(=O)CC(C)C)s2)c1 [SR-01000071221]						129.99 ± 9.49					2.68	2.68	1.13	0.52	39.6		0.08	0.08	19.19 ± 7.12	> 15600
CCCCn1c(C)c(N(CC)C(=O)C(C)(C)Oc2ccc(C)cc2)c(=O)[nH]c1=O [SR-01000071222]						126.32 ± 18.07					5.83	5.82		0.42			2.01	2.01	4.62 ± 5.04	> 14700
CCOc1ccccc1NC(=O)CN1C(=O)NC(C)(c2ccc(Cl)cc2Cl)C1=O (centres unmarked) [SR-01000072797]	0.29	0.87	2.52	2.52	1000	94.94 ± 8.96	1.39	1.39	4.41 ± 6.50							> 14200				
Cc1ccc(C)c(C(=O)CCC(=O)NNC(=O)CSc2nc3ccccc3o2)c1 [SR-01000073202]						119.67 ± 15.04					4.38	4.38		0.39	> 6.6		1.04	1.04	12.21 ± 5.38	> 14500
Nc1c(Cl)c(Cl)nc(C(=O)OCC(=O)NCc2ccccc2)c1Cl [SR-01000073564]						129.62 ± 8.33	2.07	2.07	8.96 ± 14.03	> 14500	4.46	4.46	0.59	0.42	58.6					
CC1(c2ccc3c(c2)OCO3)NC(=O)N(CC(=O)Nc2ccccc2[N+](=O)[O-])C1=O (centres unmarked) [SR-01000074154]						109.38 ± 5.55	3.21	3.20	11.86 ± 8.71		5.22	5.22	0.54	0.32	147	> 15000				
CC(C)(C)OC(=O)NNC(=O)COCc1ccc(Cl)c(Cl)c1 [SR-01000074687]						90.02 ± 17.44	1.33	1.32	17.98 ± 4.87	> 15400	3.63	3.62	0.77	0.45	77.1					
CC(NC(=O)CN1C(=O)c2cccc([N+](=O)[O-])c2C1=O)c1ccc(Cl)cc1Cl (centres unmarked) [SR-01000074712]						109.67 ± 8.84					4.91	4.91	0.80	0.40	9.7		1.73	1.73	30.27 ± 2.23	> 14700
CC1(c2ccc3c(c2)OCCO3)NC(=O)C(CC(=O)NCC2CCCCC2)C1=O (centres unmarked) [SR-01000074761]						95.96 ± 3.33	3.15	3.15	13.40 ± 6.99	> 15400	5.32	5.32	0.92	0.34	103					
COc1ccc2c(CC(=O)NNC(=O)c3cc(-c4ccccc4)no3)coc2c1 [SR-01000074979]	0.31	0.80	4.03	4.03	441	79.45 ± 3.43	2.52	2.51	−0.33 ± 8.51	> 14400										
O=C(CN1C(=O)NC2(CCCc3ccccc32)C1=O)N1CCCCCC1 (centres unmarked) [SR-01000075116]						81.52 ± 3.66	2.72	2.72	4.31 ± 1.95		4.72	4.72	0.99	0.37	142	> 14300				
O=C(CCc1nc2cccnc2n1Cc1cccs1)NCCc1cccs1 [SR-01000077903]						105.59 ± 5.95	1.29	1.29	1.27 ± 2.74	> 14100	3.66	3.66	0.45	0.37	60.2					
O=C(CCc1nc2cccnc2n1Cc1cccs1)NCCc1ccccc1 [SR-01000077904]						79.43 ± 7.55					4.54	4.54		0.41			1.20	1.20	−12.58 ± 9.87	> 14100
